molecular target: T1, recombinant human STIM1 and Orai1 (HEK-293 stable cells; JR251) (Homo sapiens, UniProt Q96D31); test: Fluorescence-based assay of store-operated calcium entry in Orai1/STIM1 stable cells; format: cell-based; conditions: 50% inhibition of Peak-Basal signal
T1 construct: c-myc (C); expressed in transfected cells
Procedure: A. Fluorescence-Based Assay of Store-Operated Calcium Entry in Orai1/STIM1 Stable Cells.
Cells stably expressing recombinant human STIM1 and Orai1 were generated by transfecting a human Orai1 expression plasmid (pcDNA3.1-Orai1-cmyc) into HEK-293 cells stably overexpressing human STIM1 (Roos et al. 2005 JCB 169(3): 435-445). Colonies of cells stably expressing both STIM1 and Orai1 proteins were selected and then subcloned by limiting dilution. Cells were cultured at 37° C./6% CO2 in complete medium with 10% FBS and appropriate selection markers.
The day prior to performing the assay Orai1/STIM1 stable cells were plated in 50 μL of complete medium at 90-95% confluence in a 384 well plate. Cells were grown at 37° C./6% CO2 overnight. On the day of the assay, 1.5 μM fluo-4-AM (Invitrogen) in complete medium was added to the cells, which were then incubated for 1 hour at RT. Cells were washed once in Ca^2+-free HBSS (Hank's buffered saline solution) and 35 μl of Ca^2+-free HBSS was added to each well. Test compounds were added to wells in a 10 μL Ca^2+-free HBSS solution, prepared at 4.5× the desired final concentration, and incubated for 30 minutes at RT. The initial baseline fluorescence signal was then measured with a FLIPR^384 (Molecular Devices) plate reader. Calcium entry was initiated by adding 5 μl of 10×CaCl2 (10 mM) in HBSS, and changes in cellular fluorescence were measured with the FLIPR^384 plate reader. In each well, the magnitude of the fluorescence signal as a result of calcium entry into the cell was determined by calculating the difference between the peak fluorescence signal measured after calcium addition and the initial baseline fluorescence signal (designated Peak-Basal). IC50 values were typically calculated as the concentration that inhibited 50% of the Peak-Basal signal (Table A).

T1 sequence (Q96D31 whole entry): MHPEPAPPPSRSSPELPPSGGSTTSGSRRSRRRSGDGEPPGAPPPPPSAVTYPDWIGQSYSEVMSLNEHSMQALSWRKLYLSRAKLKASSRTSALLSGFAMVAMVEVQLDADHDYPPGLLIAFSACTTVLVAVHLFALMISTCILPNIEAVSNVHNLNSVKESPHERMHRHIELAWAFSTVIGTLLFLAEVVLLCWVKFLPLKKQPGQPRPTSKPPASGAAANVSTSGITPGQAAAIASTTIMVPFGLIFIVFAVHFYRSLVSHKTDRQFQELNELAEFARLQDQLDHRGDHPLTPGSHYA

IC50 | Compound
1 to 10 µM | O=C(Nc1scc(-c2ccc(Br)cc2)c1C(=O)O)c1ccc(C(F)(F)F)nc1 [AA]
≤ 0.5 µM | COc1c(F)c(F)cc(C(=O)Nc2scc(-c3ccc(Br)cc3)c2C(=O)O)c1F [L]
1 to 10 µM | O=C(Nc1scc(-c2ccc(Cl)cc2)c1C(=O)O)c1ccc(C(F)(F)F)nc1 [M]
≤ 0.5 µM | O=C(Nc1scc(-c2ccc(Cl)cc2)c1C(=O)O)c1ccc2scnc2c1 [Q]
1 to 10 µM | O=C(Nc1scc(-c2ccc(Br)cc2)c1C(=O)O)OCc1ccccc1 [S]
0.5 to 1 µM | O=C(Nc1scc(-c2ccc(Cl)cc2)c1C(=O)O)c1cc(-c2ccccc2)on1 [T]
1 to 10 µM | O=C(Nc1scc(-c2ccc(Cl)cc2)c1C(=O)O)/C(F)=C/c1ccccc1Cl [U]
1 to 10 µM | O=C(Nc1scc(-c2ccc(Cl)cc2)c1C(=O)O)c1cc2ccccc2nn1 [Y]
1 to 10 µM | O=C(Nc1scc(-c2ccc(Br)cc2)c1C(=O)O)c1cn2ccccc2n1 [Z]

tested on: JR251 or RBL cells; test: Store-operated calcium entry, either JR251 or RBL cells, or both; format: cell-based; conditions: not given
Summary of the method: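 FLIPR calcium-entry readout in fluo-4-loaded cells held in Ca2+-free HBSS before calcium add-back. For RBL-2H3, store depletion used thapsigargin for 25 min after a 5 min compound pre-incubation, and IC50 was based on the 7 s Upslope. For Orai1/STIM1 stable cells, compound was pre-incubated 30 min and IC50 was based on Peak-Basal.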

IC50 | Compound
< 10 µM | O=C(Nc1scc(-c2ccc(Cl)cc2)c1C(=O)O)c1ccc2ccccc2n1 [4-(4-chlorophenyl)-2-(quinoline-2-carboxamido)thiophene-3-carboxylic acid]
< 10 µM | O=C(Nc1scc(-c2ccc(Cl)cc2)c1C(=O)O)c1cnc2ccccc2n1 [4-(4-chlorophenyl)-2-(quinoxaline-2-carboxamido)thiophene-3-carboxylic acid]
< 10 µM | O=C(Nc1scc(-c2ccc(Cl)cc2)c1C(=O)O)c1cscn1 [4-(4-chlorophenyl)-2-(thiazole-4-carboxamido)thiophene-3-carboxylic acid]
< 10 µM | O=C(Nc1scc(-c2ccc(Cl)cc2)c1C(=O)O)c1cc2nccnc2s1 [4-(4-chlorophenyl)-2-(thieno[2,3-b]pyrazine-6-carboxamido)thiophene-3-carboxylic acid]
< 10 µM | O=C(O)c1c(-c2ccc(Cl)cc2)csc1NC(=O)c1csc2nnsc12 [4-(4-chlorophenyl)-2-(thieno[2,3-d][1,2,3]thiadiazole-6-carboxamido)thiophene-3-carboxylic acid]
< 10 µM | O=C(Nc1scc(-c2ccc(Cl)cc2)c1C(=O)O)c1cc2sccc2s1 [4-(4-chlorophenyl)-2-(thieno[3,2-b]thiophene-2-carboxamido)thiophene-3-carboxylic acid]
< 10 µM | O=C(Nc1scc(-c2ccc(Cl)cc2)c1C(=O)O)c1ccsc1 [4-(4-chlorophenyl)-2-(thiophene-3-carboxamido)thiophene-3-carboxylic acid]
< 10 µM | N#Cc1ccc(-c2csc(NC(=O)CCc3ccccc3)c2C(=O)O)cc1 [4-(4-cyanophenyl)-2-(3-phenylpropanamido)thiophene-3-carboxylic acid]
< 10 µM | N#Cc1ccc(-c2csc(NC(=O)c3cc4sccc4s3)c2C(=O)O)cc1 [4-(4-cyanophenyl)-2-(thieno[3,2-b]thiophene-2-carboxamido)thiophene-3-carboxylic acid]
< 10 µM | O=C(CCc1ccccc1)Nc1scc(-c2ccc(O)cc2)c1C(=O)O [4-(4-hydroxyphenyl)-2-(3-phenylpropanamido)thiophene-3-carboxylic acid]
< 10 µM | COc1ccc(-c2csc(NC(=O)CCc3ccccc3)c2C(=O)O)cc1 [4-(4-methoxyphenyl)-2-(3-phenylpropanamido)thiophene-3-carboxylic acid]
< 10 µM | O=C(CCc1ccccc1)Nc1scc(-c2cc3cc(Cl)ccc3o2)c1C(=O)O [4-(5-chlorobenzofuran-2-yl)-2-(3-phenylpropanamido)thiophene-3-carboxylic acid]
< 10 µM | O=C(Nc1scc(-c2cc3cccc(-c4cc[nH]n4)c3o2)c1C(=O)O)c1cc2ccccc2o1 [4-(7-(1H-pyrazol-3-yl)benzofuran-2-yl)-2-(benzofuran-2-carboxamido)thiophene-3-carboxylic acid]
< 10 µM | O=C(Nc1scc(-c2cc3cccc(-c4cn[nH]c4)c3o2)c1C(=O)O)c1cc2ccccc2o1 [4-(7-(1H-pyrazol-4-yl)benzofuran-2-yl)-2-(benzofuran-2-carboxamido)thiophene-3-carboxylic acid]
< 10 µM | O=C(Nc1scc(-c2cc3cccc(O)c3o2)c1C(=O)O)c1cc2ccccn2n1 [4-(7-hydroxybenzofuran-2-yl)-2-(pyrazolo[1,5-a]pyridine-2-carboxamido)thiophene-3-carboxylic acid]
< 10 µM | O=C(Nc1scc(OC(=O)c2cc3ccccc3o2)c1C(=O)O)c1cc2ccccc2o1 [4-(benzofuran-2-carbonyloxy)-2-(benzofuran-2-carboxamido)thiophene-3-carboxylic acid]
< 10 µM | O=C(Nc1scc(OC(=O)c2cc3ccccc3o2)c1C(=O)O)OCc1ccccc1 [4-(benzofuran-2-carbonyloxy)-2-(benzyloxycarbonylamino)thiophene-3-carboxylic acid]
< 10 µM | Cc1ccc(-c2csc(NC(=O)/C=C/c3ccco3)c2C(=O)O)cc1 [(E)-2-(3-(furan-2-yl)acrylamido)-4-p-tolylthiophene-3-carboxylic acid]
< 10 µM | O=C(Nc1scc(/C=C/c2ccc(Cl)cc2)c1C(=O)O)c1cc2ccccc2o1 [(E)-2-(benzofuran-2-carboxamido)-4-(4-chlorostyryl)thiophene-3-carboxylic acid]
< 10 µM | O=C(Nc1scc(/C=C/c2ccc(F)cc2)c1C(=O)O)c1cc2ccccc2o1 [(E)-2-(benzofuran-2-carboxamido)-4-(4-fluorostyryl)thiophene-3-carboxylic acid]
< 10 µM | N#C/C(=C\c1ccco1)C(=O)Nc1scc(-c2ccc(Cl)cc2)c1C(=O)O [(E)-4-(4-chlorophenyl)-2-(2-cyano-3-(furan-2-yl)acrylamido)thiophene-3-carboxylic acid]
< 10 µM | N#C/C(=C\c1ccccc1)C(=O)Nc1scc(-c2ccc(Cl)cc2)c1C(=O)O [(E)-4-(4-chlorophenyl)-2-(2-cyano-3-phenylacrylamido)thiophene-3-carboxylic acid]
< 10 µM | O=C(O)c1c(-c2ccc(Cl)cc2)csc1NC(=O)[C@@H]1CCc2ccccc2C1 [(R)-4-(4-chlorophenyl)-2-(1,2,3,4-tetrahydronaphthalene-2-carboxamido)thiophene-3-carboxylic acid]
< 10 µM | O=C(O)c1c(-c2ccc(Cl)cc2)csc1NC(=O)[C@H](F)Cc1ccccc1Cl [(R)-4-(4-chlorophenyl)-2-(3-(2-chlorophenyl)-2-fluoropropanamido)thiophene-3-carboxylic acid]
< 10 µM | O=C(O)c1c(-c2ccc(Cl)cc2)csc1NC(=O)[C@H]1CCc2ccccc2C1 [(S)-4-(4-chlorophenyl)-2-(1,2,3,4-tetrahydronaphthalene-2-carboxamido)thiophene-3-carboxylic acid]
< 10 µM | O=C(O)c1c(-c2ccc(Cl)cc2)csc1NC(=O)[C@@H](F)Cc1ccccc1Cl [(S)-4-(4-chlorophenyl)-2-(3-(2-chlorophenyl)-2-fluoropropanamido)thiophene-3-carboxylic acid]
< 10 µM | O=C(Nc1scc(-c2ccc(Br)cc2)c1C(=O)O)/C(F)=C/c1ccccc1 [(Z)-4-(4-bromophenyl)-2-(2-fluoro-3-phenylacryl amido)thiophene-3-carboxylic acid]
< 10 µM | O=C(Nc1scc(-c2ccc(Cl)cc2)c1C(=O)O)/C(F)=C/c1ccccc1 [(Z)-4-(4-chlorophenyl)-2-(2-fluoro-3-phenylacryl amido)thiophene-3-carboxylic acid]
< 10 µM | O=C(Nc1scc(-c2ccc(Cl)cc2)c1C(=O)O)/C(F)=C/c1ccccc1Cl [(Z)-4-(4-chlorophenyl)-2-(3-(2-chlorophenyl)-2-fluoroacrylamido)thiophene-3-carboxylic acid]
< 10 µM | NC(=O)c1c(-c2ccc(Br)cc2)csc1-n1c(C(=O)O)nc2ccccc21 [N-(4-(4-bromophenyl)-3-carbamoylthiophen-2-yl)-1H-benzo[d]imidazole-2-carboxylic acid]

Compound | IC50
CC(=O)Oc1cccc2cc(-c3csc(NC(=O)c4cc5ccccc5o4)c3C(=O)O)oc12 [4-(7-acetoxybenzofuran-2-yl)-2-(benzofuran-2-carboxamido)thiophene-3-carboxylic acid] | < 10 µM
